Consider one molecule from BindingDB's records for doi:10.1016/s0960-894x(99)00089-x (Kyoto Pharmaceutical University, 1999).

A short description of the test: Inhibitory activity against HIV-1 IIIB in CEM-SS infected cells (Experiment 1).

The structures appear in SMILES notation.

Take `Cc1cn([C@H]2C[C@H](N=[N+]=[N-])[C@@H](CO)O2)c(=O)[nH]c1=O` [1-((2R,4S,5S)-4-Azido-5-hydroxymethyl-tetrahydro-furan-2-yl)-5-methyl-1H-pyrimidine-2,4-dione]: the EC50 (commonly the midpoint of the concentration-response curve) came to 126 nM.
